These results are taken from patent US11000033B2, “Ketone or oxime compound, and herbicide” (NISSAN CHEMICAL CORPORATION, priority 2014, dated 2021).

Common to all, as to type: in vivo
The subject of series [1] is Echinochloa crus-galli var. crus-galli. Description: Test Example 5: herbicidal effect by foliage application, plastic box (symbol H). As to conditions: 320 g/ha, 3 weeks after application. The method in brief: (§1)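 Greenhouse foliar test: seedlings at 14 days, grown 25° C. to 30° C. in sterilized diluvial soil; compound applied as an aqueous dilution of an emulsion; response read 3 weeks after spraying.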

In series [2] the test system is Avena fatua. Kind of series: Test Example 4: herbicidal effect by soil treatment (symbol I). As to conditions: application herbicide amount 320 g/ha. The method in brief:
(§2)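 Seeds were sown in sterilized diluvial soil, covered with about 1.5 cm of soil, and the soil surface was sprayed with a water-diluted emulsion of the compound at a predetermined rate. Plants grew in a greenhouse at 25° C. to 30° C.; effects were scored visually 3 weeks after application.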

In series [3] the test system is Apera spica-venti. Description: Test Example 5: herbicidal effect by foliage application, plastic box (symbol L). As to conditions: 320 g/ha, 3 weeks after application. The procedure, abridged:
as §1

In series [4] the test system is Monochoria vaginalis. Description: Test Example 1: herbicidal activity, application before weed generation in submerged conditions (symbol C). As to conditions: application herbicide amount 320 g/ha. The procedure, abridged: (§3)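 In a flooded pot test with alluvial soil, the emulsion-formulated compound was diluted with water to a predetermined amount and applied to the floodwater immediately on the sowing day. Pots were held in a greenhouse at 25–30 °C for 3 weeks before each weed was rated.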

Series [5] has as its system rice. Description: Test Example 4: effect on crop by soil treatment (symbol b). Conditions: application herbicide amount 320 g/ha. The method in brief:
(§4)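 Soil-treatment setup: crop and weed seeds were spot-sown into sterilized diluvial soil, then buried beneath approximately 1.5 cm of it, and the boxes were housed in a 25–30° C. greenhouse.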

Series [6] concerns Abutilon theophrasti. Kind of series: Test Example 4: herbicidal effect by soil treatment (symbol M). Conditions: application herbicide amount 320 g/ha. The method in brief: as §2
Series [7] deals with Apera spica-venti. Description: Test Example 4: herbicidal effect by soil treatment (symbol L). As to conditions: application herbicide amount 320 g/ha. The method in brief:
as §2

Series [8] concerns Echinochloa oryzacola Vasing. Kind of series: Test Example 1: herbicidal activity, application before weed generation in submerged conditions (symbol A). As to conditions: application herbicide amount 320 g/ha. The method in brief:
as §3

The subject of series [9] is rapeseed. Description: Test Example 5: effect on crop by foliage application, plastic box (symbol g). As to conditions: 320 g/ha, 3 weeks after application. The procedure, abridged: (§5)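 Box culture: sterile diluvial soil, seeds spot-sown, ~1.5 cm cover, raised under glass at 25–30° C.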
For series [10], the system named is corn. Kind of series: Test Example 5: effect on crop by foliage application, plastic box (symbol c). Conditions: 320 g/ha, 3 weeks after application. The procedure, abridged:
as §5

Series [11] has as its system Avena fatua. Description: Test Example 5: herbicidal effect by foliage application, plastic box (symbol I). Conditions: 320 g/ha, 3 weeks after application. The procedure, abridged:
as §1

Series [12] deals with soybean. Description: Test Example 4: effect on crop by soil treatment (symbol d). As to conditions: application herbicide amount 320 g/ha. The method in brief:
as §4

For series [13], the system named is Setaria viridis. Kind of series: Test Example 5: herbicidal effect by foliage application, plastic box (symbol G). As to conditions: 320 g/ha, 3 weeks after application. The procedure, abridged: as §1
Series [14] has as its system Monochoria vaginalis. Kind of series: Test Example 2: herbicidal activity, application during weed generation in submerged conditions (symbol C). As to conditions: Table 23; application herbicide amount 320 g/ha; grade 0-5 by criteria of Test Example 1. The method in brief: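 Steps: fill pots with alluvial soil; add water to 4 cm depth; co-sow the three weeds; grow at 25° C. to 30° C. under glass; at 1–2 leaves, dose the floodwater with diluted emulsion; rate damage visually after 3 weeks.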

Series [15] relates to Echinochloa crus-galli var. crus-galli. Description: Test Example 4: herbicidal effect by soil treatment (symbol H). Conditions: application herbicide amount 320 g/ha. The procedure, abridged:
as §2

For series [16], the system named is beet. Description: Test Example 4: effect on crop by soil treatment (symbol f). As to conditions: application herbicide amount 320 g/ha. The method in brief: as §4

As for `CON=C(C)CC1CC(O)=C(c2c(C)cc(-n3cncn3)cc2C)C1=O` (centres unmarked) [6-074], in [1], the “H: Echinochloa crus-galli var. crus-galli, herbicidal effect (criteria of Test Example 1)” value was 3 (Herbicidal ratio of 40% or higher and lower than 70%). Further, the “I: Avena fatua, herbicidal effect grade” value in [2] is reported as 0 (Herbicidal ratio of 5% or lower (almost no effect)). For the same compound, the “L: Apera spica-venti, herbicidal effect (criteria of Test Example 1)” value in [3] is reported as 0 (Herbicidal ratio of 5% or lower (almost no effect)). In addition, the “Herbicidal effect grade, C: Monochoria vaginalis” value in [4] and in [14] was 0 (Herbicidal ratio of 5% or lower (almost no effect)) each time. The “b: directly sowed rice plant, effect on crop grade” value in [5] was 3 (Herbicidal ratio of 40% or higher and lower than 70%). The “M: Abutilon theophrasti, herbicidal effect grade” value in series [6] is 0 (Herbicidal ratio of 5% or lower (almost no effect)). In addition, the “L: Apera spica-venti, herbicidal effect grade” value in [7] is 0 (Herbicidal ratio of 5% or lower (almost no effect)). The “Herbicidal effect grade, A: Echinochloa oryzacola Vasing.” value in [8] was 1 (Herbicidal ratio of 5% or higher and lower than 20%). Besides, the “g: rapeseed, effect on crop (criteria of Test Example 1)” value in [9] is 0 (Herbicidal ratio of 5% or lower (almost no effect)). The “c: corn, effect on crop (criteria of Test Example 1)” value in series [10] is 0 (Herbicidal ratio of 5% or lower (almost no effect)). In addition, in series [11], the “I: Avena fatua, herbicidal effect (criteria of Test Example 1)” value was 1 (Herbicidal ratio of 5% or higher and lower than 20%). For the same compound, the “d: soybean, effect on crop grade” value in series [12] was 0 (Herbicidal ratio of 5% or lower (almost no effect)). Also, in series [13], the “G: Setaria viridis, herbicidal effect (criteria of Test Example 1)” value is 4 (Herbicidal ratio of 70% or higher and lower than 90%). Besides, the “H: Echinochloa crus-galli var. crus-galli, herbicidal effect grade” value in [15] is 0 (Herbicidal ratio of 5% or lower (almost no effect)). Moreover, the “f: beet, effect on crop grade” value in series [16] is reported as 0 (Herbicidal ratio of 5% or lower (almost no effect)).
Regarding `CC#Cc1cc(C)c(C2=C(O)CC(CC(C)=O)C2=O)c(C)c1` (centres unmarked) [7-010], the “H: Echinochloa crus-galli var. crus-galli, herbicidal effect (criteria of Test Example 1)” value in series [1] was 5 (Herbicidal ratio of 90% or more (almost completely withered)). In series [2], the “Herbicidal effect grade, I: Avena fatua” value is 2 (Herbicidal ratio of 20% or higher and lower than 40%). Moreover, the “L: Apera spica-venti, herbicidal effect (criteria of Test Example 1)” value in [3] is given as 5 (Herbicidal ratio of 90% or more (almost completely withered)). For the same compound, the “Herbicidal effect grade, C: Monochoria vaginalis” value in series [4] was 1 (Herbicidal ratio of 5% or higher and lower than 20%); in series [14], 1 (Herbicidal ratio of 5% or higher and lower than 20%). In [5], the “Effect on crop grade, b: directly sowed rice plant” value is recorded as 5 (Herbicidal ratio of 90% or more (almost completely withered)). In [6], the “Herbicidal effect grade, M: Abutilon theophrasti” value is 4 (Herbicidal ratio of 70% or higher and lower than 90%). In addition, the “Herbicidal effect grade, L: Apera spica-venti” value in [7] is listed as 5 (Herbicidal ratio of 90% or more (almost completely withered)). Moreover, in [8], the “Herbicidal effect grade, A: Echinochloa oryzacola Vasing.” value is on record as 5 (Herbicidal ratio of 90% or more (almost completely withered)). In addition, the “g: rapeseed, effect on crop (criteria of Test Example 1)” value in series [9] was 4 (Herbicidal ratio of 70% or higher and lower than 90%). The “c: corn, effect on crop (criteria of Test Example 1)” value in series [10] is 5 (Herbicidal ratio of 90% or more (almost completely withered)). The “I: Avena fatua, herbicidal effect (criteria of Test Example 1)” value in series [11] was 4 (Herbicidal ratio of 70% or higher and lower than 90%). The “Effect on crop grade, d: soybean” value in series [12] was 2 (Herbicidal ratio of 20% or higher and lower than 40%). For the same compound, the “G: Setaria viridis, herbicidal effect (criteria of Test Example 1)” value in series [13] was 5 (Herbicidal ratio of 90% or more (almost completely withered)). Also, the “Herbicidal effect grade, H: Echinochloa crus-galli var. crus-galli” value in series [15] is 5 (Herbicidal ratio of 90% or more (almost completely withered)). In addition, the “Effect on crop grade, f: beet” value in series [16] is listed as 0 (Herbicidal ratio of 5% or lower (almost no effect)).
